Counter-ions that a name gives are not always drawn.
tested on: not given; details: not given

SMILES | melting point [°C]
C[N+](CCO)(CCO)CCCCCCSc1nnc(-c2ccc(F)cc2)o1 (as salt: bromide) [Compound 5a] | 74 to 76
C[N+](CCO)(CCO)CCCCCCCCCCSc1nnc(-c2ccc(F)cc2)o1 (as salt: bromide) [Compound 5c] | 102 to 103
C[N+](CCO)(CCO)CCCCCCCCCCCCSc1nnc(-c2ccc(F)cc2)o1 (as salt: bromide) [Compound 5d] | 98 to 100
C[N+](CCO)(CCO)CCCCCCSc1nnc(-c2ccc(C(F)(F)F)cc2)o1 (as salt: bromide) [Compound 6a] | 93 to 94
C[N+](CCO)(CCO)CCCCCCCCSc1nnc(-c2ccc(C(F)(F)F)cc2)o1 (as salt: bromide) [Compound 6b] | 78 to 80
C[N+](CCO)(CCO)CCCCCCCCCCSc1nc2ccccc2o1 (as salt: bromide) [Compound 10c] | 128 to 129
C[N+](CCO)(CCO)CCCCCCSc1nc2ccccc2s1 (as salt: bromide) [Compound 13a] | 142 to 143
C[N+](CCO)(CCO)CCCCCCCCSc1nc2ccccc2s1 (as salt: bromide) [Compound 13b] | 87 to 89
C[N+](CCO)(CCO)CCCCCCCCCCCCSc1nc2ccccc2s1 (as salt: bromide) [Compound 13d] | 106 to 107
Cc1nnc(SCCCCCC[N+](C)(CCO)CCO)s1 (as salt: bromide) [Compound 16a] | 56 to 57
Cc1nnc(SCCCCCCCC[N+](C)(CCO)CCO)s1 (as salt: bromide) [Compound 16b] | 74 to 75

Next, values leading:

melting point [°C] | SMILES
81 to 82 | C[N+](CCO)(CCO)CCCCCCCCSc1nnc(-c2ccc(F)cc2)o1 (as salt: bromide) [Compound 5b]
78 to 80 | CC(C)(C)c1ccc(-c2nnc(SCCCCCC[N+](C)(CCO)CCO)o2)cc1 (as salt: bromide) [Compound 7a]
71 to 72 | CC(C)(C)c1ccc(-c2nnc(SCCCCCCCC[N+](C)(CCO)CCO)o2)cc1 (as salt: bromide) [Compound 7b]
78 to 80 | CC(C)(C)c1ccc(-c2nnc(SCCCCCCCCCC[N+](C)(CCO)CCO)o2)cc1 (as salt: bromide) [Compound 7c]
125 to 127 | C[N+](CCO)(CCO)CCCCCCCCSc1nc2ccccc2o1 (as salt: bromide) [Compound 10b]
125 to 127 | C[N+](CCO)(CCO)CCCCCCCCCCCCSc1nc2ccccc2o1 (as salt: bromide) [Compound 10d]
111 to 112 | C[N+](CCO)(CCO)CCCCCCCCCCSc1nc2ccccc2s1 (as salt: bromide) [Compound 13c]
77 to 78 | Cc1nnc(SCCCCCCCCCC[N+](C)(CCO)CCO)s1 (as salt: bromide) [Compound 16c]
95 to 96 | Cc1nnc(SCCCCCCCCCCCC[N+](C)(CCO)CCO)s1 (as salt: bromide) [Compound 16d]

tested on: normal cell lines; design: method as in PMID 25215430; details: cell line not given; cited from earlier work

SMILES | Cytotoxicity IC50
CCCCCCCCCCCC[N+](C)(CCO)CCO [Compound C12QAS, N-methyl-N-dodecyl-N,N-bis(2-hydroxyethyl) ammonium bromides] | ca. 4.00 μg/mL

From article PMC6010013, “Synthesis, physiochemical property and antimicrobial activity of novel quaternary ammonium salts” (Journal of Enzyme Inhibition and Medicinal Chemistry, 2017)
